Assay [1] concerns neural progenitor subpopulation from the ventricular zone (VZ). Kind of assay: High-concentration additional signals on ventricular zone cells: neural progenitor subpopulation aligned to VZ-D0, differential genes by L1-norm. The assay is classed as cell-based, mouse. The method, then:
Having seen that these signals can control population structure, whether these additional signals induced major transcriptional changes in neural stem cells was determined. Further, whether any changes restored the functional defects observed in response to in vitro culture was determined. To learn these transcriptional changes, a new experiment was performed using high concentrations of signaling factors for two reasons: 1) the original combinatorial screen required the cells to be fixed in methanol, which may disrupt gene expression values thus making comparing that data directly to the in vivo data difficult and 2) the original combinatorial screen suffered from low sample number for some of the conditions, due to variation in proliferation rate. This new experiment was performed by adding high concentrations of additional signals (BMP4 (20 ng/mL), CHIR (3 uM), PDGF-AA (20 ng/mL) and DLL1 (surface-coated)) in addition to high concentrations of EGF/FGF immediately after dissociation of cells from the VZ, and all cells were grown for five days in these signal cocktails before profiling.
First, models were built for all of the new samples, aligned each to the VZ-D0 sample (which served as the control), and then only the subpopulations across all samples that aligned to the neural progenitor population were pulled out (FIG. 39B). By plotting the Jeffreys Divergence between these aligned populations (FIG. 39C), all the in vivo populations (E15, E18, and VZ-D0) were seen to be close to each other, while in vitro populations were very distant (VZ-D18 and ivNSC).
To confirm this possibility, the genes that were differentially expressed in the BMP4-, DLL-, PDGF-, and CHIR-containing cells were examined, and these genes were compared to the genes discovered in FIG. 36A-36I. […] By contrast, CHIR only rescued 3 of the lost genes, while DLL and PDGF had only one differentially regulated gene each (FIG. 39D).
Normally in development, these neural progenitors give rise to neurons that form six distinct layers in the cortex. These cortical layers have distinct functions, connectivity patterns, and gene expression patterns, which have been characterized in the literature. The gene expression patterns of these layer-specific genes were examined in neural progenitor populations aligned across all samples (FIGS. 39H-39I). Expression of these genes, while noisy, was very extensive in the in vivo populations, but that culture in vitro erased their expression.
Neuroprogenitors are dissociated from the combined cortex, hippocampus and ventricular zone of E18 mice (Brainbits). After dissociation and resuspension of the cells in NPgrow, cells were counted and plated onto ultra-low attachment 100 mm culture plates (Corning) at one million cells per plate in 10 mL of NPgrow supplemented with 1% Penicillin-Streptomycin. Cells were cultured at 37° C. and 5% CO2 and supplemented medium was changed every 3 to 4 days. In some experiments, subventricular zone (SVZ) stem cells were derived with supplemental factors during derivation. PDGF-AA and BMP4 (Peprotech) were used at […], and 20 ng/mL. CHIR99021 (Stem Cell) was used at 3 uM. DLL1 ligand was coated onto tissue culture plastic for one hour before plating cells.
For each gene, two empirical distributions P1(g), P2(g), one for each subpopulation, were determined. These distributions were discretized over identical histogram binnings, a, over the gene's entire range of expression, Ω. Then the L1 distance was defined as: d=sign(g2−g1)Σa∈Ω∥P1(a)−P2(a)∥1, where g1 and g2 denote the respective means of subpopulations 1 and 2. […] The L1 distance ranged from −2 to +2, both of which corresponded to completely non-overlapping distributions. Genes with L1 distances of high magnitude (≳0.5) always had distributions which, by eye, were in obvious agreement with the labeled directionality. […] Query.

The test system of assay [2] is neural stem cells / progenitor subpopulations from E18 mouse brain. In words: Combinatorial signal screen on cells dissociated from the brain: LLR ranking, query, multinomial logistic regression of subpopulation abundances. It is filed as cell-based. The note with it: for log-likelihood ratio (LLR) score against control population: control 20 ng/mL EGF/FGF. As to the method: Next, whether and how signaling interventions can pre-emptively bias the transcriptional state of neural stem cells, potentially restoring lost functionality, were determined. Given the finding that transcriptional changes happened in less than three days after in vitro culture, signals were added immediately after dissociation from the brain. Signals known to be important in neural stem cell differentiation into astrocytes (BMP4), neurons (Wnt pathway through CHIR activation), or oligodendrocytes (PDGF-AA), were chosen. A combinatorial screen, in which these signals were added together with EGF/FGF at varying concentrations to dissociated cells from the brain, were performed. The cells were grown for 5 days before profiling. To profile all of these samples, a multiplexing approach, in which cells were methanol fixed and then covalently labeled with a separate exogenous DNA barcode for each experimental condition, was used. A total of 8691 cells were profiled across 19 conditions [See Methods—Experimental multiplexing using Clicktags in this example].
First, how the populations responded at a high-level were examined by using the PopAlign framework to build new models of populations, and the populations were ranked against a control population using a Log-likelihood ratio score (FIG. 38A). In this case, the control population was defined as the 20 ng/mL EGF/FGF condition, which is the concentration of growth factors normally used to propagate neural stem cells in culture. The log-likelihood ratio score is a single metric that measures the extent to which an entire population model diverges from a control population.
To investigate this more deeply, how the population structure of these progenitor cells responded to the signaling cues was determined. For this analysis the query function [See Methods—Query in this example] of the modeling framework was used to score all cells in each sample using a standard model built from the control population. For this combinatorial screen, some conditions suffered from poor sampling (roughly 100 cells vs. 1000 cells for most samples) due to variation in proliferation rates. Thus, querying all samples using the same model was more robust than building separate models (which can be of poor quality with severe undersampling). The first 3 principal components (PCs) were used as the feature vectors in order to improve the sampling within the gene expression space.
In this new analysis, the population were segmented into more fine-grained subpopulations (FIG. 38B). While there was a committed neuroblast population, the neural progenitor population now split into three subpopulations: (1) a proliferating progenitor (PP) population that actively expressed mitotic genes, (2) a non-proliferating progenitor population (NPP), as well as (3) a basal progenitor (BP) that only expressed the progenitor program (Prog), but not glial genes like ALDOC or SPARCL1. Using the control model, individual cells from each sample were scored and assigned into one of the four subpopulations, and abundances of each individual subpopulation across all experimental samples were (FIG. 38D).
To dissect how the abundances of these individual populations responded to signals, a multinomial logistic regression analysis was performed. Multinomial logistic regression models were used to determine the probability of each cell belonging to one of K mutually exclusive classes (in this case, the four subpopulations defined above) based on m independent predictor variables (in this case, the concentrations of each signal) [See Methods—Multinomial logistic regression in this example].
By examining the regression coefficients β, the relationship between each signal and how the signal regulates the proportions of each cell type can be determined. Importantly, the regression model only computed coefficients for K−1 of the outcome classes, while the K^th class was treated as a reference. […]

For assay [3], the system named is primary human peripheral blood mononuclear cells (PBMCs). Kind of assay: PBMC signaling experiment: single-cell mRNA-seq with PopAlign alignment to the reference PBMC sample. The assay is classed as cell-based. The note with it: 1 ng/mL, 13 hours. The method, then:
One non-limiting application of PopAlign is to study heterogeneous cell populations in the human body as they respond to environmental change, drug treatments, and disease. The human immune system is an extremely heterogeneous physiological system that is central for disease and cell engineering applications. As a test case, PopAlign was tested for its ability to identify subtype-specific signaling responses in a complex mixture of primary human immune cells. Thus, primary human peripheral blood mononuclear cells (PBMCs) (FIG. 17A) were treated with two lymphokines—granulocyte-macrophage colony-stimulating factor (GM-CSF) (FIG. 17C) and interferon-gamma (IFNG) (FIG. 17D) that are known to have a specific impact on monocytes (See Experimental Methods). […] In the reference PBMCs, five independent cell densities (FIG. 17A) were identified and classified using canonical markers from the literature (FIG. 17B). The signal treated cell-populations (FIGS. 17C-17D) were aligned to the PBMC data (FIG. 17A), finding that, for both signals, the monocyte populations (mixtures PBMC-1, PBMC-3) had the largest shifts in their average gene expression state (|Δμ|>0.04) (FIG. 17F). While T-cell abundances changed (numbers), their mean cell states (μ) had the lowest magnitude of gene expression shift. For immune cell experiments, the independent mixture components were classified as effector T cells (CD3+/CD57+), naive T-cells(CD3+/CD28+), erythrocytes (HBB+), canonical monocytes (CD14+/CD16low), and nonclassical monocytes(CD14low/CD16++) (FIG. 16E). Populations in the test samples—GM-CSF (FIG. 16B) and IFNG (FIG. 15C)—were aligned to the reference populations (control) by finding pairs of components that minimize the Jeffrey's divergence (FIG. 16D). Cryopreserved PBMCs sourced from Hemacare (~10 million cells, source ID: D23127, Lot: 17043194) were thawed in a 37° C. waterbath for 2 minutes after which the cells were transferred to a 15 mL conical tube. Prewarmed RPMI1640 was then added to the 15 mL conical to a final volume of 10 mL and centrifuged for 2 minutes at 300RCF to pellet the cells. Supernatant was removed and cells were resuspended in 10 mL of RPMI1640 supplemented with 10% FBS and 1% pen/strep. The cell suspension was then plated onto a 100 mm low attachment plate and placed in a CO2 incubator at 37° C. for 5 hours for the cells to recover. For each condition, 700,000 cells were aliquoted into a well of a 96 well plate. These cells were cultured for 13 hours under two different conditions: 1) IFN-γ@ 1 ng/mL, 2) GM-CSF 1 ng/mL, each with a single additional replicate. After incubation, the plate was sealed with an aluminum adhesive and centrifuged for 3 minutes at 300RCF. […]

Take PDGF: the “number of differentially regulated genes” value in assay [1] (5 days with high EGF/FGF) was “one”. In assay [2] (per unit of signal (PDGF-AA 20 ng/mL), 5 days), the “odds ratio, basal progenitors vs non-proliferating progenitors” value was 1.75.
Regarding `Cc1c[nH]c(-c2cnc(NCCNc3ccc(C#N)cn3)nc2-c2ccc(Cl)cc2Cl)n1` [CHIR, CHIR99021, reference compound], in assay [1] (of 190 genes downregulated in ivNSCs vs E18 NProgs, 5 days with high EGF/FGF), the “number of genes downregulated in ivNSCs that are re-induced (upregulated) by the signal” value amounted to 3 genes. In assay [2] (5 days), the “log-likelihood ratio (LLR) score against control population” value was “lowest LLR score”. The “odds ratio, proliferating progenitors (PP) vs non-proliferating progenitors (NPP)” value in assay [2] (per unit of signal (unit = maximum: EGF/FGF 20 ng/mL each, CHIR 3 uM), 5 days) came out at 0.6.
“GM-CSF: lymphokine signal applied to PBMCs at 1 ng/mL”: in assay [3], the “class of transcriptional (signaling) response of canonical and non-canonical monocytes” value is recorded as “additive”; the “gene expression programs altered in monocytes” value is reported as “activating a new gene expression program called Chemokine Secretion/Leukocyte Migration pathway”.
In the case of “IFNG: lymphokine signal applied to PBMCs at 1 ng/mL”, in assay [3], the “class of transcriptional (signaling) response of canonical and non-canonical monocytes” value was “convergent”; the “gene expression programs altered in monocytes” value is “up-regulation of pathways involved in antigen presentation and phagocytosis”.

B1: DLL: DLL1 ligand, surface-coated onto tissue culture plastic (protein, UniProt O00548 18-723, looked up)
Delta-like protein 1: QVWSSGVFELKLQEFVNKKGLLGNRNCCRGGAGPPPCACRTFFRVCLKHYQASVSPEPPCTYGSAVTPVLGVDSFSLPDGGGADSAFSNPIRFPFGFTWPGTFSLIIEALHTDSPDDLATENPERLISRLATQRHLTVGEEWSQDLHSSGRTDLKYSYRFVCDEHYYGEGCSVFCRPRDDAFGHFTCGERGEKVCNPGWKGPYCTEPICLPGCDEQHGFCDKPGECKCRVGWQGRYCDECIRYPGCLHGTCQQPWQCNCQEGWGGLFCNQDLNYCTHHKPCKNGATCTNTGQGSYTCSCRPGYTGATCELGIDECDPSPCKNGGSCTDLENSYSCTCPPGFYGKICELSAMTCADGPCFNGGRCSDSPDGGYSCRCPVGYSGFNCEKKIDYCSSSPCSNGAKCVDLGDAYLCRCQAGFSGRHCDDNVDDCASSPCANGGTCRDGVNDFSCTCPPGYTGRNCSAPVSRCEHAPCHNGATCHERGHRYVCECARGYGGPNCQFLLPELPPGPAVVDLTEKLEGQGGPFPWVAVCAGVILVLMLLLGCAAVVVCVRLRLQKHRPPADPCRGETETMNNLANCQREKDISVSIIGATQIKNTNKKADFHGDHSADKNGFKARYPAVDYNLVQDLKGDDTAVRDAHSKRDTKCQPQGSSGEEKGTPTTLRGGEASERKRPDSGCSTSKDTKYQSVYVISEEKDECVIATEV
modifications: surface-coated
notes: DLL1 ligand, surface-coated onto tissue culture plastic
With B1, the “number of differentially regulated genes” value in assay [1] (5 days with high EGF/FGF) is given as “one”.

B2: BMP4: signaling factor (Peprotech) important in neural stem cell differentiation into astrocytes (protein, UniProt P12644 293-408, looked up)
Bone morphogenetic protein 4: SPKHHSQRARKKNKNCRRHSLYVDFSDVGWNDWIVAPPGYQAFYCHGDCPFPLADHLNSTNHAIVQTLVNSVNSSIPKACCVPTELSAISMLYLDEYDKVVLKNYQEMVVEGCGCR
As to B2, in assay [1] (5 days in culture), the “rescue of expression of cortical layer-specific genes in neural progenitors” value was “only signal that could rescue the expression of these genes”. In assay [1] (5 days with high EGF/FGF), the “number of genes upregulated in ivNSCs that are suppressed by the signal” value is recorded as 22 genes. Also, the “Jeffreys Divergence of aligned neural progenitor subpopulation to in vivo populations” value in assay [1] (compared to VZ-D5, VZ-D5-CHIR, VZ-D5-DLL, VZ-D5-PDGF) was “closest to the in vivo populations”. For the same molecule, the “committed neuroblasts (CN) proportion of the population” value in assay [2] (addition of BMP and low EGF/FGF) was approximately 50%. The “log-likelihood ratio (LLR) score against control population” value in assay [2] (5 days) was “lowest LLR score”. Also, in assay [2] (per unit of signal (BMP4 20 ng/mL), 5 days), the “odds ratio, committed neuroblasts vs non-proliferating progenitors” value was 2.2.

The record behind these values is patent US12700475B2, “Systems and methods for dissecting heterogeneous cell populations” (California Institute of Technology, priority 2018, dated 2026).
